# Assay results from patent publication US10006064B2, “Biosynthetic pathways, recombinant cells, and methods” (REGENTS OF THE UNIVERSITY OF MINNESOTA, priority 2012, dated 2018).
# B1: ATF1: Alcohol acetyltransferase from S. cerevisiae, expressed in recombinant E. coli BW25113 (protein, listed as Saccharomyces cerevisiae)
# chain: MDLWKRLFEANPTKIRDKKIKNGHFISITNTINLSALMNEIDEKNQAPVQQECLKEMIQNGHARRMGSVEDLYVALNRQNLYRNFCTYGELSDYCTRDQLTLALREICLKNPTLLHIVLPTRWPNHENYYRSSEYYSRPHPVHDYISVLQELKLSGVVLNEQPEYSAVMKQILEEFKNSKGSYTAKIFKLTTTLTIPYFGPTGPSWRLICLPEEHTEKWKKFIFVSNHCMSDGRSSIHFFHDLRDELNNIKTPPKKLDYIFKYEEDYQLLRKLPEPIEKVIDFRPPYLFIPKSLLSGFIYNHLRFSSKGVCMRMDDVEKTDDVVTEIINISPTEFQAIKANIKSNIQGKCTITPFLHVCWFVSLHRWGKFFKPLNFEWLTDIFIPADCRSQLPDDDEMRQMYRYGANVGFIDFTPWISEFDMNDNKENFWPLIEHYHEVISEALRNKKHLHGLGFNIQGFVQKYVNIDKVMCDRAIGKRRGGTLLSNVGLFNQLEEPDAKYSICDLAFGQFQGSWHQAFSLGVCSTNVKGMNIVVASTKNVVGSQESLEELCSIYKALLLGP
# B2: ATF2: Alcohol acetyltransferase from S. cerevisiae, expressed in recombinant E. coli BW25113 (protein, listed as Saccharomyces cerevisiae)
# chain: MEDIEGYEPHITQELIDRGHARRMGHLENYFAVLSRQKMYSNFTVYAELNKGVNKRQLMLVLKVLLQKYSTLAHTIIPKHYPHHEAYYSSEEYLSKPFPQHDFIKVISHLEFDDLIMNNQPEYREVMEKISEQFKKDDFKVTNRLIELISPVIIPLGNPKRPNWRLICLPGKDTDGFETWKNFVYVTNHCGSDGVSGSNFFKDLALLFCKIEEKGFDYDEEFIEDQVIIDYDRDYTEISKLPKPITDRIDYKPALTSLPKFFLTTFIYEHCNFKTSSESTLTARYSPSSNANASYNYLLHFSTKQVEQIRAQIKKNVHDGCTLTPFIQACFLVALYRLDKLFTKSLLEYGFDVAIPSNARRFLPNDEELRDSYKYGSNVGGSHYAYLISSFDIPEGDNDKFWSLVEYYYDRFLESYDNGDHLIGLGVLQLDFIVENKNIDSLLANSYLHQQRGGAIISNTGLVSQDTTKPYYVRDLIFSQSAGALRFAFGLNVCSTNVNGMNMDMSVVQGTLRDRGEWESFCKLFYQTIGEFASL
# Tested on: E. coli strain BW25113
# Assay: Shake flask fermentation with candidate alcohol acyltransferases, isobutyl acetate production (GC-FID)
# Type: cell-based
# Conditions: strains identical except for the AAT; 20 g/L glucose, 30° C., 48 hours; ± standard deviation, three colonies
# From the text: (§1) Each was cloned and transformed into E. coli strain BW25113 for analysis.
# (§2) Three synthetic operons were constructed for gene expression to produce isobutyl acetate and isoamyl acetate (FIG. 5). All the plasmids were constructed to be under the regulation of PLlacO1 promoter. To produce isobutyl acetate, the first operon included four coding regions on a medium copy plasmid carrying kanamycin resistance marker in a transcriptional order ilvC-ilvD-alsS-AAT, with the ATT position being occupied by the coding region of one of the five exemplary acyltransferases (AAT) being analyzed. (FIG. 5(a)). The second operon included two coding regions on a high copy plasmid with an ampicillin resistance maker in a transcriptional order kivd-yqhD. For the synthesis of isoamyl acetate, the coding regions of leuA, leuB, leuC, and leuD involved in leucine biosynthesis were introduced in the first medium copy plasmid between alsS and AAT, and the same second high copy plasmid was used. (FIG. 5(b)).
# (§3) We assessed the effect of each of the five exemplary acyltransferases on the production titers for isobutyl acetate and isoamyl acetate. […]
# (§4) Shake flask fermentations were carried out for the recombinant strains. […] The produced medium-chain ester compounds were quantified by GC-FID (gas chromatography-flame ionization detector) analysis. […]
row,Molecule,isobutyl acetate production titer [g/L]
1,B1,2.14 ± 0.17
2,B2,1.69 ± 0.46

# Tested on: not given
# Assay: not given
# Conditions: solubility in water / aqueous medium; cited from earlier work
row,Molecule,Solubility
1,CCO [Ethanol],miscible
2,CCOC(C)=O [Ethyl acetate],83 mg/mL
3,CCOC(=O)C(C)C [Ethyl isobutyrate],3.2 mg/mL
4,CCOC(=O)CC(C)C [Ethyl isovalerate],2 mg/mL
5,CC(C)COC(=O)C(C)C [isobutyl isobutyrate],0.5 mg/mL
6,CC(C)CC(=O)OC(=O)CC(C)C [isovaleryl isovalerate],insoluble

# Tested on: E. coli strain BW25113
# Assay: Shake flask fermentation with candidate alcohol acyltransferases, isoamyl acetate production (GC-FID)
# Type: cell-based
# Conditions: strains identical except for the AAT, with leuABCD; 20 g/L glucose, 30° C., 48 hours
# From the text: as §1, §2, §3, §4
row,Molecule,isoamyl acetate production titer
1,B1,highest production titers
2,B2,highest production titers
